Results from ChEMBL document CHEMBL1141786, “Microbial transformation of curvularin” (J Nat Prod, 2005).
The source made the active and inactive calls.

How the values were obtained:
Assay type in all cases: functional, cell-based
[1] = tested on: NCI-H460; experiment: Cytotoxicity against human NCI-H460 cells upto 10 ug/mL by MTT assay
[2] = tested on: MCF7; experiment: Cytotoxicity against human MCF7 cells upto 10 ug/mL by MTT assay
[3] = tested on: SF-268; experiment: Cytotoxicity against human SF268 cells upto 10 ug/mL by MTT assay

Measured: Activity

CO[C@H]1[C@H](O)[C@@H](O)[C@H](Oc2cc(O)cc3c2C(=O)CCCCC[C@H](C)OC(=O)C3)O[C@@H]1CO
inactive: [1] | [2] | [3]

CO[C@H]1[C@H](O)[C@@H](O)[C@H](Oc2c(O)cc3c(c2O)C(=O)CCCCC[C@H](C)OC(=O)C3)O[C@@H]1CO
inactive: [1] | [2] | [3]

C[C@H]1CCCCCC(=O)c2c(cc(O)cc2O[C@@H]2O[C@H](CO)[C@@H](O)[C@H](O)[C@H]2O)CC(=O)O1
inactive: [1] | [2] | [3]
